# According to patent publication US11446282B2, “Methods of treating mixed dyslipidemia and hypertriglycertdemia” (Kowa Company, Ltd., priority 2017, dated 2022):
# How the values were obtained:
# [1] = Urinary excretion in nonclinical and clinical studies; assay type: in vivo
# [2] = tested on: dyslipidemic patients with statin; assay: Example 4 pooled analysis: lipoprotein subclasses by HPLC, with statin, by eGFR; assay type: in vivo, human; settings: for Small HDL-C % Change from baseline to week 12 / Small LDL-C % Change from baseline to week 12 / Very small HDL-C % Change from baseline to week 12 / Very small LDL-C % Change from baseline to week 12: LS mean
# Description: The present study analyzed data combined from 6 randomized double-blind placebo-controlled studies that were conducted in Japan and continued for 12 weeks unless otherwise noted: a phase 2 study in 224 patients with a history of documented dyslipidemia and plasma TG of 200 mg/dL (2.26 mmol/L) or higher, randomized to placebo, pemafibrate 0.05, 0.1, 0.2, 0.4 mg/day, or fenofibrate 100 mg/day; a phase 3 study in 526 patients with dyslipidemia, high TG levels, and low HDL-C levels, randomized to placebo, pemafibrate 0.1, 0.2, or 0.4 mg/day, or fenofibrate 100 or 200 mg/day; a study in 188 patients with dyslipidemia, randomized to pitavastatin in combination with pemafibrate 0.1, 0.2, or 0.4 mg/day; a 24-week study in 423 patients with dyslipidemia, randomized to pemafibrate 0.2 mg/day (fixed dose) or 0.2 [0.4] mg/day (conditional up-titration) with any statin; a 24-week phase 3 study in 166 patients with type 2 diabetes and hypertriglyceridemia, randomized to placebo or pemafibrate 0.2 or 0.4 mg/day; and a study in 27 patients with hypertriglyceridemia and insulin resistance, randomized to pemafibrate 0.4 mg/day or placebo. All studies were approved by the Institutional Review Board for each study institution and were conducted in accordance with the Declaration of Helsinki and under the guidelines of Good Clinical Practice.
# In this study, we evaluated the efficacy and safety of pemafibrate at doses of 0.1 mg/day, 0.2 mg/day, and 0.4 mg/day, with and without statin. The primary efficacy endpoint was percent change in TG from baseline to 12 weeks. The secondary efficacy endpoints were also assessed from baseline to 12 weeks: percent change in HDL-C, LDL-C, non-HDL-C, TC, RemL-C, Apo AI, Apo AII, Apo B, Apo B48, Apo CII, Apo CIII, Apo CIII/Apo CII, and Apo E; percent change in HPLC findings for CM-C, VLDL-C, cholesterol content in 4 subclasses of LDL (large, medium, small, and very small LDLs), and cholesterol content for 5 subclasses of HDL (very large, large, medium, small, and very small HDLs); and changes in fibrinogen and FGF21. The primary safety endpoints were the incidence of adverse events and adverse drug reactions. Secondary safety endpoints were percentage of values above the upper limit of normal range for AST, ALT, sCr and CK, and change in sCr eGFR, CK, AST, ALT, gamma-glutamyl transferase (γ-GT), alkaline phosphatase (ALP), and total bilirubin.
# Patients with renal dysfunction were defined as those with baseline eGFR<60 mL/min/1.73 m^2. Analysis was stratified by the presence or absence of renal dysfunction in the concomitant statin group, and efficacy and safety of pemafibrate were evaluated. In efficacy and safety evaluations excluding AEs, ADRs, and cutoff values for AST, ALT, sCr, and CK, findings were combined for pemafibrate subgroups receiving doses of 0.1 mg/day, 0.2 mg/day, and 0.4 mg/day.
# For each lipid parameter, gel filtration HPLC was performed at Skylight Biotech, Inc. Other measurements were performed at LSI Medience Corporation. The FAS was used for analyzing efficacy parameters of effects on lipids, fibrinogen, and FGF21. The safety analysis set was used for safety parameters and included all patients who received at least one dose of the study drug. For lipid parameters, fibrinogen, and FGF21, LS means (95% confidence interval) were calculated at Week 12 (LOCF) using analysis of covariance (ANCOVA) with baseline values as the co-variable within each category. For safety parameters, LS means (95% confidence interval) were calculated at Week 12 using ANCOVA with baseline values as the co-variable within each category. SAS version 9.2 was used for analyses.
# [3] = tested on: European patients; assay: Study K-877-201, Phase 2 dose-finding study conducted in Europe; assay type: in vivo, human
# Description: (§1) In previous clinical trials, pemafibrate has been administered at doses ranging from 0.1 mg to 1.6 mg per day in healthy adults. Doses up to 0.4 mg per day have been administered in patients with dyslipidemia. […] Increases in LDL-C, both by beta quantification and calculation with the Friedewald equation, were also observed. Based on analysis of efficacy variables, pemafibrate appeared to have a lowering effect on Apo C3 that led to the conversion of VLDL particles to LDL particles, increasing the fraction of larger LDL particles, and reducing TG levels. Similarly, the reduction of Apo C3 led to increased removal of remnant-like particles and lowering of Apo B48. […] The observed increases in Apo A1 and HDL-C resulted from both increased production of Apo A1 in the liver and increased turnover of TG-rich lipoproteins, both of which were associated with a decreased CHD risk.
# [4] = tested on: patients with dyslipidemia; assay: Previous clinical trials of pemafibrate (healthy adults, patients with dyslipidemia); assay type: in vivo, human
# Description: as §1
# Because the urinary excretion of pemafibrate is low, as shown by nonclinical and clinical studies, it is expected that pemafibrate can be used safely even in patients with renal impairment. In addition, because the drug has minimal inhibitory effects on major drug metabolizing enzymes in the liver, it is unlikely to cause drug-drug interactions; however, drugs which are strong organic anion-transporting polypeptide (OATP) inhibitors (e.g., cyclosporine and rifampin) do interact with pemafibrate.
# [5] = Baseline eGFR < 60 mL/min/1.73 m^2, 0.1-0.4 mg/day
# [6] = Baseline eGFR ≥ 60 mL/min/1.73 m^2, 0.1-0.4 mg/day
# [7] = baseline to Week 12, last observation carried forward
structure (smiles),measurement,setting,value
"CC[C@@H](Oc1cccc(CN(CCCOc2ccc(OC)cc2)c2nc3ccccc3o2)c1)C(=O)O [Pemafibrate, (2R)-2-[3-({1,3-benzoxazol-2-yl[3-(4-methoxyphenoxy)propyl]amino}methyl)phenoxy]butanoic acid]",urinary excretion,[1],low
same,Small HDL-C Week 12 (LOCF),[2]; [5],0.484 mmol/L
same,Small LDL-C Week 12 (LOCF),[2]; [5],0.577 mmol/L
same,Very small HDL-C Week 12 (LOCF),[2]; [5],0.208 mmol/L
same,Very small LDL-C Week 12 (LOCF),[2]; [5],0.229 mmol/L
same,Small HDL-C % Change from baseline to week 12,[2]; [5],34.9%
same,Small LDL-C % Change from baseline to week 12,[2]; [5],−7.8%
same,Very small HDL-C % Change from baseline to week 12,[2]; [5],25.2%
same,Very small LDL-C % Change from baseline to week 12,[2]; [5],−14.6%
same,Small HDL-C Week 12 (LOCF),[2]; [6],0.470 mmol/L
same,Small LDL-C Week 12 (LOCF),[2]; [6],0.576 mmol/L
same,Very small HDL-C Week 12 (LOCF),[2]; [6],0.204 mmol/L
same,Very small LDL-C Week 12 (LOCF),[2]; [6],0.231 mmol/L
same,Small HDL-C % Change from baseline to week 12,[2]; [6],26.7%
same,Small LDL-C % Change from baseline to week 12,[2]; [6],−6.0%
same,Very small HDL-C % Change from baseline to week 12,[2]; [6],19.4%
same,Very small LDL-C % Change from baseline to week 12,[2]; [6],−12.5%
same,small and very small LDL-C and HDL particle sizes (observation),[2]; lower eGFR group,improvements
same,placebo-adjusted TG reduction,[3]; 0.2 mg twice daily,54.4%
same,Apo A1 change,[3]; [7],increases
same,Apo A2 change,[3]; [7],increases
same,Apo B48 change,[3]; [7],decreases
same,Apo C2 change,[3]; [7],decreases
same,Apo C3 change,[3]; [7],decreases
same,FGF21 change,[3]; [7],increases
same,HDL-C change,[3]; [7],increases
same,VLDL-C change,[3]; [7],decreases
same,LDL-C change,[3]; by beta quantification and Friedewald equation,Increases
same,non-HDL-C change,[3]; in vivo,decrease
same,total Apo B levels change,[3]; in vivo,no changes
same,efficacy in TG reduction and HDL-C elevation,[3]; twice daily compared to once daily,Greater efficacy
same,TG change,[4]; Japanese and European patients,dose-dependent decreases
same,safety profile,"[4]; total daily doses 0.1 mg to 0.4 mg, daily or divided twice daily",acceptable safety profile
